According to PMC2744016, “Adenosine Triphosphate Stimulates Aquifex aeolicus MutL Endonuclease Activity” (PLoS ONE, 2009):

What was measured:
[1] = biological target: T1, Aae MutL (Aquifex aeolicus, UniProt O67518); assay: filter-binding assay with 3H nucleotide; details: labelled compound; no DNA, ssDNA or dsDNA M13mp18; 10 mM MgCl2, 50 mM NaCl, pH 7.9, room temperature
T1 construct: full-length (C-terminal domain residues 303-425), expressed in E. coli Rosetta (DE3) from pTWIN1 as Mxe GyrA intein fusion, intein tag cleaved off
T1 sequence (O67518 1-425): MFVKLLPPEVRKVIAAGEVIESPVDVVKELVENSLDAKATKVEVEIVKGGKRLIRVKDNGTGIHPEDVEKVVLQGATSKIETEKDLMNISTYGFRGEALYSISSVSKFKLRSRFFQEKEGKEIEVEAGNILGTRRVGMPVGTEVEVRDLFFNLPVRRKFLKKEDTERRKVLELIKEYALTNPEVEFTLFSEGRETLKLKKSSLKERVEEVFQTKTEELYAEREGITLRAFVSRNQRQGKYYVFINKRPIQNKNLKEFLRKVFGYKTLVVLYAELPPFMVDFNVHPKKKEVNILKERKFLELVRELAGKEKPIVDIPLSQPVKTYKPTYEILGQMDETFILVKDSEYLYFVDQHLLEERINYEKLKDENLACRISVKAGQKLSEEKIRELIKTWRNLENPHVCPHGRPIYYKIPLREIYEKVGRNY

[2] = biological target: T1, Aae MutL; assay: initial rate of supercoiled pBR322 nicking, agarose gel; assay type: biochemical; details: 1 mM AMPPNP, 1 mM MnSO4, pH 7.6, 37 °C; activator

Row | Structure (SMILES) | filter-binding assay with 3H nucleotide [1] | initial rate of supercoiled pBR322 nicking, agarose gel [2]
1 | Nc1ncnc2c1ncn2[C@@H]1O[C@H](COP(=O)(O)OP(=O)(O)O)[C@@H](O)[C@H]1O [ADP] | in the presence of ssDNA MutL binds both ATP and ADP with about equal affinity | –
2 | Nc1ncnc2c1ncn2[C@@H]1O[C@H](COP(=O)(O)OP(=O)(O)NP(=O)(O)O)[C@@H](O)[C@H]1O [AMPPNP] | – | AMPPNP stimulated Aae MutL nicking activity to the same extent as observed with ATP
3 | Nc1ncnc2c1ncn2[C@@H]1O[C@H](COP(=O)(O)OP(=O)(O)OP(=O)(O)O)[C@@H](O)[C@H]1O [ATP] | in the presence of ssDNA MutL binds both ATP and ADP with about equal affinity | –
